Test results as given in US9809586B2, “Inhibitors of collagen prolyl 4-hydroxylase” (WISCONSIN ALUMNI RESEARCH FOUNDATION, priority 2015, dated 2017).
Like-named read-outs stand apart in the source and are kept apart here.

Assays:
[1] = tested on: MDA-MB-231 breast cancer cells; assay: Effect on iron metabolism (immunoblots for ferritin, TfR, HIF-1α) in MDA-MB-231 cells
Experimental: (§1) MDA-MB-231 or HEK293T cells were plated at 50,000 cells/well into 12-well plates and grown to confluence (˜24 h) as described in Section X. The cells were washed, and the medium was replaced with 1.0 mL of serum-free medium. Stock solutions of all test compounds were prepared at 100× in DMSO and added to a final concentration of 1× (0.1-0.5 mM). After addition of the test compound or DMSO vehicle, cells were incubated for 24 h. The cells were then washed with 100 μL MPER solution from Thermo Fisher Scientific (Waltham, Mass.) and collected. Protein concentrations were determined by BCA assay (Thermo Fisher Scientific), and samples corresponding to 40 μg total protein were analyzed by immunoblot.
(§2) For all immunoblot analyses, protein samples where boiled in SDS-PAGE buffer, separated by electrophoresis through a Tris-glycine SDS-PAGE gel from Bio-Rad Laboratories (Hercules, Calif.), and subsequently transferred to a PVDF membrane for immunoblotting. All primary antibodies were used at the working dilution specified by the manufacturer. Primary antibodies were visualized using a complementary secondary antibody fused to horseradish peroxidase (HRP), with detection of HRP by chemiluminescence, imaging using an ImageQuant LAS 4000 (GE Healthcare), and quantification by densitometry (ImageJ software). The anti-rabbit antibody from Promega and the anti-mouse antibody from Abbiotec (San Diego, Calif.) were used at the working dilution specified by the manufacturer.
(§3) For investigations of iron metabolism, protein samples (40 μg) were separated by SDS-PAGE through a 12% w/v acrylamide gel, and blots were probed with primary antibodies to human ferritin (rabbit monoclonal) from Abcam (Cambridge, Mass.), human transferrin receptor (mouse monoclonal) from Invitrogen, human HIF-1α (mouse monoclonal) from BD Biosciences, and human β-actin (rabbit monoclonal) from Cell Signaling Technology (Danvers, Mass.). Quantifications were normalized to the signal from β-actin, after which treated samples were compared to vehicle-treated controls.

[2] = Assay of Fe(II)-affinity for biheteroaryl ligands (Fe20-EC50 titration, spectrophotometry); assay type: physicochemical; settings: Fe(II) 20 μM; highest concentration tested, not saturated
Experimental: A library of biheteroaryl compounds (FIG. 2) was prepared and evaluated them as iron chelators in vitro. The library was assembled either from commercial vendors (pypyr and pyim) or by synthesis using palladium-catalyzed cross-coupling reactions (pypyraz, pypyrid, pyox, and pythi). To evaluate the iron affinity of these compounds in vitro, titration experiments were performed to determine the half-maximal concentration required to form a complex with 20 μM Fe(II) at pH 7.0.
The affinity of biheteroaryl ligands for Fe(II) was determined comparatively by measuring the half-maximal concentration (EC50) required for binding 20 μM Fe(II) (Fe20-EC50) in sodium phosphate buffer at pH 7. Stock solutions of ligands were prepared in either water for high affinity ligands (typically Fe20-EC50<1 mM) or DMSO for low affinity ligands (typically Fe20-EC50>1000 μM). Stock solutions of FeSO4 were prepared in H2O and used within 3 hours of preparation. […] For high affinity ligands, solutions were allowed to equilibrate for 15 min, after which the absorbance was recorded at the λmax for the complex under study. For most low affinity ligands, the corresponding Fe(II) complexes were unstable and observed to dissociate over time. Therefore, the absorbance value was determined within 30 s of mixing, where the absorbance was measured at the λmax for the complex under study. Complexes with pyox were not observed under these conditions. Absorbance values were corrected by subtracting the absorbance value in the absence of ligand. Dose-response curves were generated for each ligand by plotting the absorbance versus the log of the ligand concentration. Fe20-EC50 values for each ligand were interpolated from the dose-response curves by non-linear regression using the sigmoidal dose-response function in Prism. All experiments were performed in triplicate.

MDA-MB-231 cells [3] = assay: Cytotoxicity assay (MTS); assay type: cell-based; settings: MDA-MB-231, 24 h; higher than aqueous solubility limit
Experimental: The toxicity of esterified biheteroaryl compounds for human breast cancer cells was evaluated with the CellTiter 96® AQueous One Solution Cell Proliferation Assay (MTS) from Promega (Madison, Wis.). Briefly, MDA-MB-231 cells grown as described in Section X were plated at a concentration of 5,000 cells/well in a clear 96-well plate. The cells were allowed to adhere for 4 h, after which the medium was removed and discarded. Fresh medium was added and the cells were treated with varying concentrations of the test compound at 37° C. for 24 h. The medium was removed, and cells were washed with Dulbecco's PBS. The MTS reagent was added at a ratio of 1:5, and the cells were incubated at 37° C. for 2 h before measuring the absorbance at 490 nm. The average absorbance was measured in triplicate for each concentration tested, and the entire experiment was repeated in duplicate. The percentage of viable cells was determined by normalizing to a PBS control (100% viable), and a H2O2 control (0% viable). For all of the compounds tested, the LD50-value could not be measured due to its being higher than the aqueous solubility limit: diethyl bipy55′DC, LD50>100 μM; diethyl pyimDC, LD50>1000 μM; diethyl pythiDC, LD50>500 μM.

IRPs = assay: Electrophoretic mobility shift assay for IRE-binding by IRPs from treated cells; assay type: cell-based, human; settings: treated MDA-MB-231 cells, 24 h, radiolabeled RNA ligand
Experimental: The resultant pellets (˜50 μL) were washed with PBS and then lysed using a protocol described previously.^41 Briefly, cell pellets were resuspended in 200 μL of cell lysis buffer, which was 20 mM Hepes-HCl buffer, pH 7.4, containing sodium pyrophosphate (10 mM), sodium fluoride (50 mM), β-glycerophosphate (50 mM), EDTA (5 mM), GTP (1 mM), sodium orthovanadate (1 mM), benzamidine hydrochloride (2 mM), Nonidet NP-40 (0.5% v/v), p-nitrophenyl p′-guanidinobenzoate-HCl (25 μg/mL), DTT (1 mM), leupeptin (40 μg/mL), pepstatin (4 μg/mL), SBTI (100 μg/mL), MG132 (10 μM), PMSF (200 μM), and BHT (5 μg/mL) by vortexing and lysed on ice by vortexing every few min. After 15 min, the lysates were centrifuged at 14,000 rpm and the supernatants aliquoted and stored at −80° C. until analysis by an electrophoretic mobility shift assay (EMSA).
EMSAs were performed and quantified essentially as described previously.^42 Briefly [^32P]-L-ferritin IRE (1 nM RNA, specific radioactivity ˜7,000 dpm/fmol) was incubated with lysate protein (2.5 μg as determined by the Bradford assay) in binding buffer for 10 min on ice. Heparin was added (to 0.5 mg/mL), and the reaction mixture was incubated for an additional 5 min on ice before separating bound and free RNA on a nondenaturing polyacrylamide gel at ambient temperature.

P4HA1 = assay: Effect on P4HA1 levels (immunoblot); assay type: cell-based, human; settings: MDA-MB-231
Experimental: For investigations of P4HA1 levels, protein samples were treated and quantified as described above for iron metabolism except that the blots were probed with primary antibodies to human P4HA1 (rabbit polyclonal) from Thermo Fisher Scientific and human β-actin.

MDA-MB-231 cells [4] = assay: Effect on secretion of type I collagen into conditioned media; assay type: cell-based, human
Experimental: For investigations of collagen secretion, protein samples were separated by SDS-PAGE through a 7.5% w/v acrylamide gel. Blots were first stained for total protein using Ponceau S, after which they were probed with a primary antibody to human type-I collagen (α1) (rabbit polyclonal) from Novus Biologicals (Littleton, Colo.).
After the addition of a test compound or vehicle (DMSO), cells were incubated for 48 h, after which 1.0 mL of conditioned medium was removed and added to 4.0 mL of chilled acetone (−20° C.). The resultant mixtures were incubated for 3 h at −20° C., after which the precipitated protein was pelleted by centrifugation at 10,000 g for 30 min. The supernatants were discarded and the pellets dried briefly in a fume hood. Pellets were stored at −20° C. prior to analysis with an immunoblot.

HEK293T cells = assay: Effect on iron metabolism (immunoblots for ferritin, TfR, HIF-1α) in HEK293T cells; assay type: cell-based, human; settings: HEK cells; diethyl pyimDC at low levels
Experimental: as §1, §2, §3

human PHD2 = biological target: T1, human PHD2 (Homo sapiens, UniProt Q9GZT9); assay: Assay of human PHD2 activity in the presence of inhibitors; assay type: biochemical; settings: 10 μM compound
T1 construct: made in house
T1 sequence (Q9GZT9 181-426 limits assumed): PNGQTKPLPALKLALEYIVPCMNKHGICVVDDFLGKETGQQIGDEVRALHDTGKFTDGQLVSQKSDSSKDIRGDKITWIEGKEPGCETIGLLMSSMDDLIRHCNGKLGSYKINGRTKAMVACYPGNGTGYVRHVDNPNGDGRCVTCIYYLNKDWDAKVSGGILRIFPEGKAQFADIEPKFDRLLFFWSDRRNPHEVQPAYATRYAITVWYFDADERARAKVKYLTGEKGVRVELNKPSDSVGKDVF
Experimental: The catalytic activity of human PHD2 was assayed as described previously.^36 Briefly, activity assays were carried out at 30° C. in 100 μL Tris-HCl buffer, pH 7.8, containing human NHis6-PHD2181-426 (5 μM), inhibitor (0-50 μM), substrate (HIF-1α peptide556-574, 50 μM), FeSO4 (50 μM), BSA (1 mg/mL), catalase (0.3 mg/mL), sodium ascorbate (2 mM), DTT (1 mM), and α-ketoglutarate (35 μM). Reactions mixtures were pre-incubated with or without inhibitor for 2 min at 30° C., after which the reaction was initiated by the addition of α-ketoglutarate. After 10 minutes, reactions were quenched by boiling for 60 s and centrifuged at 10,000 g. The supernatant (50 μL) was injected into a Nucleodur® C18 Gravity reversed-phase column (4.6×250 mm, 5 μm particle size) from Macherey-Nagel (Bethlehem, Pa.). The column was eluted at 1 mL/min with a gradient (34 min) of 5-56% aqueous acetonitrile containing 0.1% v/v TFA. The absorbance of the eluent was monitored at 218 nm. All assays were performed in triplicate. Data is reported as activity relative to control reactions lacking inhibitor, where activity is determined from the percent conversion of substrate to product.

human CP4H1 = biological target: T2, human CP4H1 (Homo sapiens, UniProt P13674); assay: Assay of human CP4H1 activity in the presence of inhibitors; assay type: biochemical
T2 construct: made in house; host or cells: Origami B(DE3) Escherichia coli
T2 sequence (P13674 18-534): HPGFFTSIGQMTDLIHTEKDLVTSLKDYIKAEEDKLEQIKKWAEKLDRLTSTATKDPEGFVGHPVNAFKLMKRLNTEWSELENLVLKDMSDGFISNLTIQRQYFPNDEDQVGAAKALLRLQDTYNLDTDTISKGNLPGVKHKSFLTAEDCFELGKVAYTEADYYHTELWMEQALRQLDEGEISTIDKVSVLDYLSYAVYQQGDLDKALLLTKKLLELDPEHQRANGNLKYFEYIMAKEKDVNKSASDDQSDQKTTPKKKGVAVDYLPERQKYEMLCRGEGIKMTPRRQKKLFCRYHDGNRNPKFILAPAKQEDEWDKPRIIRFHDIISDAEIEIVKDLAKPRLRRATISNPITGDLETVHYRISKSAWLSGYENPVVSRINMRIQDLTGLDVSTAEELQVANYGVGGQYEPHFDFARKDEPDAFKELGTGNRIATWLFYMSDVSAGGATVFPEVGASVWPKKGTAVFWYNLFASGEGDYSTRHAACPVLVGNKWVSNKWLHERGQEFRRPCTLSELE
T2 sequence (P07237 18-508 partner): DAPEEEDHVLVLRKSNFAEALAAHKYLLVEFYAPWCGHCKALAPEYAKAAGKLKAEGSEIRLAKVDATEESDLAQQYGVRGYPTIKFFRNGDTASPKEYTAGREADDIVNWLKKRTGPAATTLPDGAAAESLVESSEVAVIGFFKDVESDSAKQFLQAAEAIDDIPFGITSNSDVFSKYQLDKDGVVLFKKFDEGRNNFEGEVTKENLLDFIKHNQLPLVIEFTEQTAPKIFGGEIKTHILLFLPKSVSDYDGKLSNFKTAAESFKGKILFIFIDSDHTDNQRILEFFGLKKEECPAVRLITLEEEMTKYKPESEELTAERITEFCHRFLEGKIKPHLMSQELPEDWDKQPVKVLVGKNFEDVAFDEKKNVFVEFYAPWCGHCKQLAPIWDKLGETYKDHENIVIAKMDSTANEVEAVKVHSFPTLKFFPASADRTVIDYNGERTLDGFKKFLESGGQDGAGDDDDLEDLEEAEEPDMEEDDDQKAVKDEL
Experimental: The catalytic activity of human CP4H1 was assayed as described previously.^35 Briefly, activity assays were carried out at 30° C. in 100 μL Tris-HCl buffer, pH 7.8, containing human CP4H1 (100 nM), inhibitor (0-500 μM), substrate (dansylGlyProProGlyOEt, 500 μM), FeSO4 (50 μM), BSA (1 mg/mL), catalase (0.1 mg/mL), sodium ascorbate (2 mM), DTT (100 μM), and α-ketoglutarate (100 μM). Reactions were pre-incubated with or without inhibitor for 2 min at 30° C., after which the reaction was initiated by the addition of α-ketoglutarate. After 15 min, reactions were quenched by boiling for 45 s and centrifuged at 10,000 g. The supernatant (20-50 μL) was injected into a Nucleodur® C18 Gravity reversed-phase column (4.6×250 mm, 5 μm particle size) from Macherey-Nagel (Bethlehem, Pa.). The column was eluted at 1 mL/min with a gradient (20 min) of aqueous acetonitrile (20-45% v/v) containing 0.1% v/v TFA. The absorbance of the eluent was monitored at 289 nm. All assays were performed in triplicate. Data are reported as activity relative to control reactions lacking inhibitor, where catalytic activity is determined from the percent conversion of substrate to product. Dose-response curves were generated for each inhibitor by plotting the relative activity versus the log of the inhibitor concentration. IC50-values for each inhibitor were interpolated from the data by non-linear regression using the sigmoidal dose-response function available in Prism.

breast cancer = settings: mouse model of breast cancer, Gilkes et al.; cited from earlier work
MDA-MB-231 cells [5] = settings: 500 μM; cited from earlier work
[6] = titration of 20 μM FeSO4; bipy; read-out: Fe20-EC50; cited from earlier work
[7] = cited from earlier work

In the case of `CCOC(=O)c1ccc(-c2ncc(C(=O)OCC)[nH]2)nc1` [diethyl pyimDC, Ethyl 2-(5-ethoxycarbonyl-1H-imidazol-2-yl)pyridine-5-carboxylate], the “Accumulation of TFR or HIF-1α” value ([1]; MDA-MB-231) is reported as “without an associated accumulation”, the “Concentration at which no iron-deficient phenotype is observed” value ([1]; MDA-MB-231, 24 h) is reported as ≤ 56 µM and the “Iron-deficiency phenotype of treated cells” value ([1]; MDA-MB-231, 24 h, EDHB 500 μM, diethyl pythiDC up to 500 μM) is reported as “intermediate phenotype”. For the same compound, the Ferritin levels ([1]; MDA-MB-231, above 56 μM) was “significant decrease”, the EC50 [2] was > 600 µM and the LD50 (MDA-MB-231 cells [3]) was > 1000 µM. For the same compound, the “RNA binding by IRPs” value (IRPs) was “did not”, the “Levels of human CP4H1 (P4HA1) itself” value (P4HA1) was “did not appear to affect” and the “Efficacy on collagen secretion compared with diethyl bipy55′DC” value (MDA-MB-231 cells [4]; MDA-MB-231) was “indistinguishable”. The “Level of secreted type I collagen” value (MDA-MB-231 cells [4]; MDA-MB-231, 48 h, conditioned media) was “reduced the level of secreted collagen significantly” and the “Level of TFR, HIF-1α, or ferritin” value (HEK293T cells) was “did not affect”.

With `O=C(O)c1ccc(-c2ncc(C(=O)O)[nH]2)nc1` [pyimDC, 2-(5-Carboxy-1-H-imidazol-2-yl)pyridine-5-carboxylic Acid] the “Inhibition of human PHD2 in screen” value (human PHD2) was “only weakly”, the “Inhibition of catalytic activity of human CP4H1 in initial screen” value (human CP4H1; 10 μM compound, 50 μM FeSO4) was “inhibitors” and the IC50 (human CP4H1; dose-response, mean of three independent experiments) was 2.6 ± 0.1 µM. For the same compound, the “Potency relative to pyoxDC” value (human CP4H1; from dose-response IC50 values) was “approximately 10 fold”.

In the case of `CCOC(=O)c1ccc(O)c(O)c1` [EDHB, Ethyl dihydroxybenzoate], the “Tumor fibrosis and metastasis” value (breast cancer) is given as “decreases tumor fibrosis and metastasis”, the “RNA binding by IRPs” value (IRPs) is given as “significant increases” and the Collagen secretion (MDA-MB-231 cells [5]) is given as “diminish collagen secretion significantly”.

For `c1ccc(-c2ccccn2)nc1` [bipy, 2,2′-bipyridine, reference compound], the EC50 [6] is listed as 43 ± 2 µM, the “RNA binding by IRPs” value (IRPs) is listed as “significant increases” and the “Heteroaryl pKa (ref.)” value ([7]; conjugate acid of pyridine (bipy) or the nonpyridyl ring) is listed as 5.2 (48). The pKa ([7]; conjugate acid of the entire compound, bipy) was 4.3.
